Like-named read-outs stand apart in the source and are kept apart here.
Columns and labels:
SARS-COV-2 = experiment: microbe, parasite or virus in culture; assay type: cell-based; design: SI (Selectivity Index, CC50/IC50): unit not given here; conditions: for SI (Selectivity Index, CC50/IC50): SARS-COV-2, values >50 assumed to be 50; for IC50: read-out: SARS-COV-2 inhibition (IC50)
dengue virus = experiment: Inhibitory effect against dengue virus in Vero E6 cells; assay type: cell-based
Procedure: On the next day, a compound having a concentration of 0.0625 micro M was prepared from a compound having a concentration of 3 micro M and treated to Vero E6 cells, and then the cells treated with the compound were immediately infected with dengue virus (0.01 MOI) and cultured at 37° C. for five days.

[1] = test system: SFTS virus (KADGH; NCCP43261); experiment: microbe, parasite or virus in culture; assay type: cell-based, severe fever with thrombocytopenia syndrome virus; design: SI (Selectivity Index, CC50/IC50): unit not given here; conditions: for SI (Selectivity Index, CC50/IC50): SFTS virus; for IC50: Severe fever with thrombocytopenia syndrome virus, Vero, 24 h, read-out: SFTSV inhibition (IC50, μM)
Zika virus = experiment: Inhibitory effect against Zika virus in Vero cells; assay type: cell-based
in vitro [2] = conditions: African green monkey
in vitro [3] = conditions: African green monkey; remark: listed apart in the source
[4] = test system: IL-5 secretion in mouse splenocytes; experiment: Inhibition of IL-5 secretion in mouse splenocytes (Concanavalin A, ELISA); assay type: cell-based, Balb/c mice; conditions: for inhibition at 1 µM: Splenocyte, read-out: IL-5 Secretion inhibitory ability (%); for IL-5 pg/ml: Concanavalin A 5 μg/mL, 48 hours
Procedure: (§1) The isolated splenocytes were diluted at a concentration of 5×10^6 cells/mL in RPMI medium containing 10% fetal bovine serum (FBS) and antibiotics (penicillin at 100 U/mL, streptomycin at 100 μg/mL), distributed at 500 μl/well in a 24 well plate, and cultured in a 37° C., 5% CO2 incubator for 48 hours. When splenocytes were distributed, an immune reaction was induced by treating with 5 μg/mL of Concanavalin A, and at this time, the splenocytes were treated with the materials selected in Experimental Example 3 at a concentration of 1 uM. First, in order to measure Th2 cytokines, the medium was collected from the 24-well plate, and only the supernatant was separated through centrifugation at 800×g for five minutes, after which 100 μl of the supernatant per well was used in an enzyme-linked immunosorbent assay (ELISA, Komabiotech) experiment so as to measure a degree of secretion of Th2 cytokines IL-4 and IL-5. A degree of inhibition against secretion of cytokines by the test material was calculated using [Equation 2] below, and the measurement results are shown in Table 7.

[5] = test system: IL-4 secretion in mouse splenocytes; experiment: Inhibition of IL-4 secretion in mouse splenocytes (Concanavalin A, ELISA); assay type: cell-based, Balb/c mice; conditions: for inhibition at 1 µM: Splenocyte, read-out: IL-4 Secretion inhibitory ability (%); for IL-4 pg/ml: Concanavalin A 5 μg/mL, 48 hours
Procedure: as §1

[6] = test system: IL-4 secretion in RBL-2H3 cells; experiment: Inhibition of IL-4 secretion in RBL-2H3 cell line (A23187 induced, ELISA); assay type: cell-based; conditions: Rattus norvegicus
Procedure: The RBL-2H3 cell line was purchased from the American Type Culture Collection (ATCC #CRL-2256). The cells were diluted at a concentration of 1×10^6 cells/ml in RPMI medium containing 15% fetal bovine serum (FBS) and antibiotics (penicillin at 100 U/mL, streptomycin at 100 μg/mL), distributed at 200 μl/well in a 48 well plate, and cultured in a 37° C., 5% CO2 incubator for 24 hours. In 24 hours later, the cells were pre-treated one hour before with a test drug and AS1517499 (STAT6 inhibitor) as a control drug, and treated with 1 uM of A23187 for six hours to induce an immune response, after which a group not containing the drug was used as a control. In order to measure a secretion level of cytokine IL-4, the medium was collected from the well plate and centrifuged at 125×g for five minutes to remove a residue, and 100 μl of the medium was used to measure an amount of IL-4 secreted from the cells by using IL-4 enzyme-linked immunosorbent assay (ELISA, Komabiotech). A degree of inhibition of cell secretion by the drug was calculated using [Equation 1] below.
First of all, 288 kinds of materials were treated at a single concentration of 10 uM so as to select 60 kinds of materials which inhibit secretion of IL-4 by 75% or more (FIG. 19).
After that, a repeated experiment and a two-concentration (10, 3 uM) test were performed using the selected 60 kinds of materials so as to select the final eight kinds, and the IC50 value was calculated and shown in Table 3.

[7] = test system: Balb/c mouse asthma model; experiment: Balb/c mouse asthma model (ovalbumin), BALF IgE, IL-4, IL-5 and inflammatory cells; assay type: in vivo, Balb/c mice
Procedure: In detail, five-week-old Balb/c mice were purchased and acclimated for one week, after which the mice were sensitized systemically by intraperitoneal injection with 0.1% ovalbumin (OVA 1 mg/mL, Al(OH)3 20 mg/mL) at 100 μl/mouse on days 0 and 14 from a week after the acclimation. From a week (day 21) after a final systemic sensitization, the compound of Example 73 was orally administered everyday at 10 mg/kg to mice for ten days, and dexamethasone was intraperitoneally administered at 1 mg/kg as a positive control group. In one hour later, 0.2% ovalbumin solution was sprayed with a nebulizer (PARIBoy SX, GmbH, Germany) so as to be inhaled for one hour. In five hours after the final sensitization (day 30), an autopsy was performed, and 1 mL of phosphate buffer solution was flowed through a tracheotomy to collect a bronchoalveolar lavage fluid (BALF). The collected BALF was centrifuged at 3000 rpm for ten minutes, and the supernatant was used to measure bioactive materials (IL-4, IL-5), and pellets were used to measure the number of inflammatory cells. In addition, an IgE concentration in the isolated BALF was measured using IgE enzyme-linked immunosorbent assay (ELISA, Komabiotech), and IL-4 and IL-5 were measured using their respective enzyme-linked immunosorbent assay (ELISA, IL-4: Enzo #ADI-900-043, IL-5: R&D system #M5000).
The results are shown in Table 8 and FIG. 22, and each secretion inhibitory activity was calculated in the same manner as in [Equation 2] of Experimental Example 4.
In addition, the BALF pellets were re-dissolved by adding 0.5 mL of phosphate buffer solution, and then 0.1 mL for each thereof was added to a 96-well plate and centrifuged at 800 rpm for five minutes to attach cells to the bottom (three wells per sample). Then, the cells were stained with Diff Quik staining solution (Sysmex) and the number of cells was measured with […].
The results were shown in FIG. 21, the SPSS program was used for statistical processing, the Levene test was performed for equal-variance test, and the significance test was performed through one-way ANOVA.

[8] = Severe acute respiratory syndrome coronavirus 2, Vero cells, 24 hours infection
[9] = mouse splenocytes, compound 1 μM
[10] = RBL-2H3 cells, 1 uM A23187, read-out: IL-4 secretion inhibition IC50
[11] = RBL-2H3, read-out: IL-4 secretion inhibition IC50 (μM)
[12] = Severe acute respiratory syndrome coronavirus 2, Vero, 24 h
[13] = Example 73 10 mg/kg oral, dexamethasone 1 mg/kg intraperitoneal
[14] = Mean ± S.D., n = 5, Example 73 10 mg/kg oral, dexamethasone 1 mg/kg intraperitoneal, ten days

SMILES | SI (Selectivity Index, CC50/IC50) (SARS-COV-2) | IC50 (SARS-COV-2; [8]) [nM] | SI (Selectivity Index, CC50/IC50) [1] | IC50 [1] [µM] | CC50 at 24 h (in vitro [2]) [mM] | CC50 (in vitro [3]) [µM] | IL-5 pg/ml [4, 9] [pg/mL] | IL-4 pg/ml [5, 9] [pg/mL] | IC50 (SARS-COV-2; [12]) [nM] | other results
COc1cc2cc3c(c(-c4ccc5c(c4)OC(F)(F)O5)c2cc1OC)C(=O)OC3 [Example 221, 9-(2,2-difluorobenzo[d][1,3]dioxol-5-yl)-6,7-dimethoxynaphtho[2,3-c]furan-1(3H)-one] | 275.32 | 180 | 11472 | 0.04 | 0.457 | > 50 | – | – | – | protection from cytopathic effects induced by dengue virus (dengue virus): protects from cytopathic effects; EC50 (dengue virus; Dengue virus, Vero C1008, 120 h, 0.01 MOI, five days, read-out: Dengue virus Inhibitory ability (EC50)): 79 nM; protection from cytopathic effects induced by Zika virus (Zika virus): protects from cytopathic effects; EC50 (Zika virus; Zika virus, 120 h, 0.02 MOI, five days, read-out: Zika virus Inhibitory ability (EC50)): 484 nM
CCN(CC)CCCC(C)Nc1ccnc2cc(Cl)ccc12 (centres unmarked) [Chloroquine] | – | – | – | 21.8 | – | – | – | – | – | CC50 (in vitro [2]): 104 µM
COc1cc2cc3c(c(-c4cc5c(cc4OC(=O)c4ccccn4)OCO5)c2cc1OC)C(=O)OC3 [Example 169, 6-(6,7-dimethoxy-3-oxo-1,3-dihydronaphtho[2,3-c]furan-4-yl)benzo[d][1,3]dioxol-5-yl picolate] | 40.73 | 1230 | – | – | – | > 50 | 67.1 | 46.7 | – | inhibition at 1 µM [4, 9]: 27.9%; inhibition at 1 µM [5, 9]: 86.3%; IC50 [6, 10]: 2.34 µM
COc1cc2cc3c(c(-c4cnc(N(C)C5CCCC5)nc4)c2cc1OC)C(=O)OC3.Cl [Example 84, 9-(2-(cyclopentyl(methyl)amino)pyrimidin-5-yl)-6,7-dimethoxynaphtho[2,3-c]furan-1(3H)-one hydrochloride] | 237.53 | – | – | – | – | > 50 | 11.2 | 1.1 | 210 | inhibition at 1 µM ([4]; Mus musculus): 88%; inhibition at 1 µM ([5]; Mus musculus): 99.7%; IC50 [6, 11]: 5.23 µM
NC(=O)c1ncn([C@@H]2O[C@H](CO)[C@@H](O)[C@H]2O)n1 [Ribavirin] | – | – | – | 64.8 | 1.27 | – | – | – | – | –
COc1cc2cc3c(c(-c4cnc(N(CC(C)C)CC(C)C)nc4)c2cc1OC)C(=O)OC3.Cl [Example 86, 9-(2-(diisobutylamino)pyrimidin-5-yl)-6,7-dimethoxynaphtho[2,3-c]furan-1(3H)-one hydrochloride] | 0.75 | – | – | – | – | 19.2 | 71.0 | 96.0 | 25700 | inhibition at 1 µM ([4]; Mus musculus): 23.7%; inhibition at 1 µM ([5]; Mus musculus): 71.8%; IC50 [6, 11]: 2.21 µM
COc1cc2cc3c(c(-c4ccc(N(C)c5cccc(C#N)c5)nc4)c2cc1OC)C(=O)OC3.Cl [Example 237, 3-((5-(6,7-dimethoxy-3-oxo-1,3-dihydronaphtho[2,3-c]furan-4-yl)pyridin-2-yl)(methyl)amino)benzonitrile] | 61.98 | – | 1277 | 0.794 | 1.01 | > 50 | – | – | 810 | –
COc1cc2cc3c(c(-c4ccc(N(C)C5Cc6ccccc6C5)nc4)c2cc1OC)C(=O)OC3 [Example 194, 9-(6-((2,3-dihydro-1H-indan-2-yl)(methyl)amino)pyridin-3-yl)-6,7-dimethoxynaphtho[2,3-c]furan-1(3H)-one] | 33.63 | 1490 | 48785 | 0.965 | 47.1 | > 50 | – | – | – | –
CCCCN(CCCC)c1ncc(-c2c3c(cc4cc(OC)c(OC)cc24)COC3=O)cn1 [Example 73, 9-(2-(dibutylamino)pyrimidin-5-yl)-6,7-dimethoxynaphtho[2,3-c]furan-1(3H)-one] | 6.53 | 7660 | – | – | – | > 50 | 74.1 | 86.3 | – | inhibition at 1 µM [4, 9]: 20.4%; inhibition at 1 µM [5, 9]: 74.7%; IC50 [6, 10]: 3.19 µM; number of eosinophils in BALF ([7]; 10 mg/kg oral, ten days): significantly reduced; BALF IL-4 Secretion inhibitory ability % [7, 13]: (51.3%); BALF IL-5 Secretion inhibitory ability % [7, 13]: (33.7%); BALF IgE Secretion inhibitory ability % [7, 13]: (24.3%); BALF IL-4 pg/ml [7, 14]: 64.9 ± 35.025 pg/mL; BALF IL-5 pg/ml [7, 14]: 20.7 ± 13.46 pg/mL; BALF IgE [7, 14]: 10.5 ± 3.282 ng/mL
